In US4515942A, “Antibiotics KA-6606 XII, XIII, XV, XVI and XVII” (Kowa Company, Ltd., priority 1980, dated 1985):

Assays:
Solubility in solvents = assay type: physicochemical
[1] = test system: Bacillus subtilis ATCC 6633; test: disc plate method (Table 1); assay type: cell-based; conditions: Bacillus subtilis, ATCC6633, 1 mg/ml; paper disc 8 mm; Bacillus subtilis ATCC 6633 (Table 1); read-out: Inhibition zone (diameter)
From the text: (§1) Tables 1 and 2 show the antibacterial spectra of the antibiotics KA-6606 VII to KA-6606 XVII against various bacteria, determined by the disc plate method, in comparison with the KA-6606 II substance. Each of the chemicals is used as impregnated in a paper disc having a diameter of 8 mm.

Klebsiella pneumoniae = test: disc plate method (Table 1); assay type: cell-based; conditions: 1 mg/ml, paper disc 8 mm
From the text: as §1

[2] = test system: Staphylococcus aureus 209P; test: disc plate method (Table 1); assay type: cell-based; conditions: Staphylococcus aureus, 209P, 1 mg/ml, paper disc 8 mm, read-out: Inhibition zone (diameter)
From the text: as §1

Serratia marcescens = test: disc plate method (Table 1); assay type: cell-based; conditions: 1 mg/ml, paper disc 8 mm, read-out: Inhibition zone (diameter)
From the text: as §1

Proteus vulgaria = test: disc plate method (Table 1); assay type: cell-based; conditions: 1 mg/ml, paper disc 8 mm, read-out: Inhibition zone (diameter)
From the text: as §1

Proteus inconstans [3] = test: disc plate method (Table 1); assay type: cell-based; conditions: 1 mg/ml; paper disc 8 mm; Proteus inconstans (Table 1)
From the text: as §1

Escherichia coli NIHJ = test: disc plate method (Table 1); assay type: cell-based; conditions: Escherichia coli, 1 mg/ml, paper disc 8 mm, read-out: Inhibition zone (diameter)
From the text: as §1

Stability = assay type: physicochemical; conditions: pH range in which stable
Proteus vulgaris OX-107 = test: disc plate method (Table 2); assay type: cell-based; conditions: paper disc 8 mm; for zone of inhibition at 10000 µg/mL / zone of inhibition at 1000 µg/mL: Proteus vulgaris, read-out: Inhibition zone (diameter); for zone of inhibition at 10000 µg/mL: OX107, 10 mg/ml; for zone of inhibition at 1000 µg/mL: OX107, 1 mg/ml; for Inhibition zone (diameter): 1 mg/ml
From the text: as §1

[4] = test system: Bacillus subtilis ATCC 6633; test: disc plate method (Table 2); assay type: cell-based; conditions: paper disc 8 mm; for zone of inhibition at 10000 µg/mL / zone of inhibition at 1000 µg/mL: Bacillus subtilis, read-out: Inhibition zone (diameter); for zone of inhibition at 10000 µg/mL: ATCC6633, 10 mg/ml, Bacillus subtilis ATCC 6633; for zone of inhibition at 1000 µg/mL: ATCC6633, 1 mg/ml; for zone of inhibition at 1000 µg/mL / Inhibition zone (diameter): Bacillus subtilis ATCC 6633 (Table 2); for Inhibition zone (diameter): 1 mg/ml
From the text: as §1

[5] = test system: Escherichia coli NIHJ JC-2; test: disc plate method (Table 2); assay type: cell-based; conditions: paper disc 8 mm; for zone of inhibition at 10000 µg/mL / zone of inhibition at 1000 µg/mL: Escherichia coli, read-out: Inhibition zone (diameter); for zone of inhibition at 10000 µg/mL: NIHJJC2, 10 mg/ml; for zone of inhibition at 1000 µg/mL: NIHJJC2, 1 mg/ml; for Inhibition zone (diameter): 1 mg/ml
From the text: as §1

[6] = test system: Pseudomonas aeruginosa NCTC 10490; test: disc plate method (Table 2); assay type: cell-based; conditions: paper disc 8 mm; for zone of inhibition at 10000 µg/mL / zone of inhibition at 1000 µg/mL: Pseudomonas aeruginosa, read-out: Inhibition zone (diameter); for zone of inhibition at 10000 µg/mL: NCTC10490, 10 mg/ml; for zone of inhibition at 1000 µg/mL: NCTC10490, 1 mg/ml; for Inhibition zone (diameter): 1 mg/ml
From the text: as §1

Serratia marcescens NHL = test: disc plate method (Table 2); assay type: cell-based; conditions: paper disc 8 mm; for zone of inhibition at 10000 µg/mL / zone of inhibition at 1000 µg/mL: Serratia marcescens, read-out: Inhibition zone (diameter); for zone of inhibition at 10000 µg/mL: 10 mg/ml; for zone of inhibition at 1000 µg/mL / Inhibition zone (diameter): 1 mg/ml
From the text: as §1

[7] = test system: Staphylococcus aureus 209D-JC-1; test: disc plate method (Table 2); assay type: cell-based; conditions: paper disc 8 mm; for zone of inhibition at 10000 µg/mL / zone of inhibition at 1000 µg/mL: Staphylococcus aureus, read-out: Inhibition zone (diameter); for zone of inhibition at 10000 µg/mL: 209DJC1, 10 mg/ml; for zone of inhibition at 1000 µg/mL: 209DJC1, 1 mg/ml; for Inhibition zone (diameter): 1 mg/ml
From the text: as §1

[8] = test system: Klebsiella pneumoniae PCI 602; test: disc plate method (Table 2); assay type: cell-based; conditions: paper disc 8 mm; for zone of inhibition at 1000 µg/mL: Klebsiella pneumoniae, PCI602, 1 mg/ml, read-out: Inhibition zone (diameter); for Inhibition zone (diameter): 1 mg/ml
From the text: as §1

Proteus inconstans [9] = test: disc plate method (Table 2); assay type: cell-based; conditions: 1 mg/ml, paper disc 8 mm, Proteus inconstans (Table 2); for zone of inhibition at 1000 µg/mL: Providencia alcalifaciens, read-out: Inhibition zone (diameter)
From the text: as §1

Row | Structure (SMILES) | Solubility in solvents: chloroform (Solubility in solvents) | Solubility in solvents: ethyl acetate (Solubility in solvents) | Solubility in solvents: methanol (Solubility in solvents) | Solubility in solvents: water (Solubility in solvents) | Stability (stable at pH) (Stability) | zone of inhibition at 1000 µg/mL [8] [mm] | zone of inhibition at 1000 µg/mL (Proteus vulgaris OX-107) [mm] | zone of inhibition at 1000 µg/mL [4] [mm] | zone of inhibition at 1000 µg/mL [5] [mm] | zone of inhibition at 1000 µg/mL [6] [mm] | zone of inhibition at 1000 µg/mL (Serratia marcescens NHL) [mm] | zone of inhibition at 1000 µg/mL [7] [mm] | zone of inhibition at 1000 µg/mL (Proteus inconstans [9]) [mm] | Inhibition zone (diameter) (Proteus inconstans [9]) [mm] | further results
1 | CNC1C(OC)CC(N)C(OC2OC(C(C)N)CCC2N)C1O (stereo not shown) [KA-6606 VII] | Insoluble | Insoluble | Easily soluble | Easily soluble | 2-10 pH |  |  |  |  |  |  |  |  |  | zone of inhibition at 1000 µg/mL [1]: 17.8 mm; Inhibition zone (diameter) (Klebsiella pneumoniae): 9.0 mm; zone of inhibition at 1000 µg/mL [2]: 9.3 mm; zone of inhibition at 1000 µg/mL (Serratia marcescens): 15.1 mm; zone of inhibition at 1000 µg/mL (Proteus vulgaria): 20.1 mm; Inhibition zone (diameter) (Proteus inconstans [3]): 9.0 mm; zone of inhibition at 1000 µg/mL (Escherichia coli NIHJ): 17.5 mm
2 | CNC1C(O)CC(N)C(OC2OC(CO)C(O)C(O)C2N)C1O (stereo not shown) [KA-6606 XII] | Insoluble | Insoluble |  | Easily soluble | 2-10 pH |  |  |  |  |  |  |  |  |  | zone of inhibition at 10000 µg/mL (Proteus vulgaris OX-107): 9.3 mm; zone of inhibition at 10000 µg/mL [4]: 17.7 mm; zone of inhibition at 10000 µg/mL [5]: 9.2 mm; zone of inhibition at 10000 µg/mL [6]: 9.3 mm; zone of inhibition at 10000 µg/mL (Serratia marcescens NHL): 9.8 mm; zone of inhibition at 10000 µg/mL [7]: 16.8 mm
3 | CNC1C(OC)CC(N)C(OC2OC(C(C)N)CCC2NC(N)=O)C1O (stereo not shown) [KA-6606 XVI] | Insoluble | Insoluble | Easily soluble | Easily soluble | 2-10 pH | 8.5 | 15.8 | 20.6 | 16.2 | 11.8 | 16.3 | 16.3 | 8.9 |  | 
4 | CNC1C(OC)CC(N)C(OC2OC(CN)CCC2N)C1O (stereo not shown) [KA-6606 XIV] | Insoluble | Insoluble | Easily soluble | Easily soluble | 2-10 pH | 9.5 | 12 | 19.1 | 11.8 | 9.2 | 13.5 | 17.1 | 8.5 |  | 
5 | CNC1C(O)CC(N)C(OC2OC(C(C)N)CCC2N)C1O (stereo not shown) [KA-6606 X] | Insoluble | Insoluble | Easily soluble | Easily soluble | 2-10 pH |  |  |  |  |  |  |  |  | 11.9 | Inhibition zone (diameter) [8]: 17.4 mm; Inhibition zone (diameter) (Proteus vulgaris OX-107): 16.6 mm; Inhibition zone (diameter) [4]: 22.5 mm; Inhibition zone (diameter) [5]: 16.3 mm; Inhibition zone (diameter) [6]: 13.8 mm; Inhibition zone (diameter) (Serratia marcescens NHL): 16.5 mm; Inhibition zone (diameter) [7]: 23.3 mm
6 | CNC1C(O)CC(N)C(OC2OC(C(C)N)CCC2N)C1O (stereo not shown) [KA-6606 XI] | Insoluble | Insoluble | Easily soluble | Easily soluble | 2-10 pH |  |  |  |  |  |  |  |  | 19.0 | Inhibition zone (diameter) [8]: 18.5 mm; Inhibition zone (diameter) (Proteus vulgaris OX-107): 15.1 mm; Inhibition zone (diameter) [4]: 23.5 mm; Inhibition zone (diameter) [5]: 18.0 mm; Inhibition zone (diameter) [6]: 16.6 mm; Inhibition zone (diameter) (Serratia marcescens NHL): 16.8 mm; Inhibition zone (diameter) [7]: 25.2 mm
7 | CNC1C(OC)CC(N)C(OC2OC(C(C)N)=CCC2N)C1O (stereo not shown) [KA-6606 XIII] | Insoluble | Insoluble | Easily soluble | Easily soluble | 2-10 pH | 17 | 18.5 | 22.6 | 18.4 | 14.8 | 18.5 | 22 | 14.3 |  | 
8 | CNC1C(O)CC(N)C(OC2OC(C(C)N)CCC2N)C1O (stereo not shown) [KA-6606 IX] | Insoluble | Insoluble | Easily soluble | Easily soluble | 2-10 pH | 13.7 | 15.2 | 23.8 | 16.7 | 15.9 | 16 | 22.9 |  | 9.4 | 
9 | CNC1C(OC)CC(N)C(OC2OC(CN)=CCC2N)C1O (stereo not shown) [KA-6606 XV] | Insoluble | Insoluble | Easily soluble | Easily soluble | 2-10 pH | 18.6 | 16.4 | 23.1 | 18.5 | 16.2 | 18.2 | 23.3 | 9 |  | 
10 | CNC1C(OC)CC(NC(N)=O)C(OC2OC(C(C)N)CCC2N)C1O (stereo not shown) [KA-6606 XVII] | Insoluble | Insoluble | Easily soluble | Easily soluble | 2-10 pH |  |  |  |  |  |  |  |  |  | zone of inhibition at 10000 µg/mL (Proteus vulgaris OX-107): 16.8 mm; zone of inhibition at 10000 µg/mL [4]: 17.3 mm; zone of inhibition at 10000 µg/mL [5]: 10.7 mm; zone of inhibition at 10000 µg/mL [6]: 10.1 mm; zone of inhibition at 10000 µg/mL (Serratia marcescens NHL): 13.6 mm; zone of inhibition at 10000 µg/mL [7]: 14.2 mm
